For the first test, the target named is GPR84 (Homo sapiens (Human), UniProt Q9NQS5). Description: Gai biosensor BRET assay (GPR84-mediated activation of Gai, antagonist mode against agonist ZQ-16). The conditions noted are these: HEK293 cells, 200 nmol/L GPR84 agonist ZQ-16, read-out: hGPR84 IC50. Format: cell-based. Put shortly: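 Transiently transfected HEK293 cells expressing GPR84, Gαi2-Rluc8, GFP10-Gγ2 and Gβ1, in Tyrode's buffer pH 7.5. Compounds pre-incubated 5 min at 37° C, then 200 nmol/L ZQ-16 for 5 min at room temperature; BRET² with coelenterazine 400A, ligand-promoted net BRET after background and vehicle subtraction.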
Chain of GPR84 (Q9NQS5 whole entry): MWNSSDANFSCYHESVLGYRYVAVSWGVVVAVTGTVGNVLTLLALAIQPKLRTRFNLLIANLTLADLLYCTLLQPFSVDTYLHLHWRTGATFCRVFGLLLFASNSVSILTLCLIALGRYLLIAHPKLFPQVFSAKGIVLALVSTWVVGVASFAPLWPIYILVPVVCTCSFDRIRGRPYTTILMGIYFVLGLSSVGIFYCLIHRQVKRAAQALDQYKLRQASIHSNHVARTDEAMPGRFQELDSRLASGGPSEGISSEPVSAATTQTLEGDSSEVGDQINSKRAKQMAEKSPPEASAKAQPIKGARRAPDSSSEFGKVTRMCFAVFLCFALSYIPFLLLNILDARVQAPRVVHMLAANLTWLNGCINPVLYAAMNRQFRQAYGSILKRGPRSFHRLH
On the technique in general: In BRET a luciferase serves as donor, and the signal depends on an acceptor being close.
`Cc1cc(OCc2nccn2C)cc(=O)n1[C@H](C)c1ccc(C#CC2CC2)cc1` [Compound I-303]: the IC50 (in general, the concentration that inhibits the measured activity by half) was less than 5 µM.
As for `O=C(CC1CCOCC1)N1CCc2cc(C#CC3CC3)ccc2C1` [Compound I-181], the half-inhibitory concentration (IC50) was greater than 25 µM.
Same read-out and setting: the same measure for `COc1cc(OCC2COCCO2)cc(-c2ccc(-c3ccc(C)nc3)cc2)n1` (stereo not drawn) [Compound I-51]: greater than 25 µM; for `COc1cccnc1COc1cc(C)n([C@H](C)c2ccc(C#CC3CC3)cc2)c(=O)c1` [Compound I-318]: less than 5 µM.
Take `Cc1ccc(-c2ccc3c(c2)OCCn2c-3cc(OCC3COCCO3)nc2=O)cn1` (stereo not drawn) [Compound I-211]: the IC50 lay within 5 to 10 µM.

Still in this test, the particulars now being: compound tested at 2 μM (concentration code A).
Regarding `Cc1cc(OCc2nccn2C)cc(=O)n1[C@H](C)c1ccc(C#CC2CC2)cc1` [Compound I-303], the inhibition (as a rule, the percentage by which the read-out fell short of the control) at 2 µM is greater than 75%.
Same read-out and setting: the same measure for `Cc1cc(OCc2ncccn2)cc(=O)n1[C@H](C)c1cccc(C#CC2CC2)c1` [Compound I-252]: less than 25%.
The molecule `Cc1cc(OCc2cncn2C)cc(=O)n1[C@H](C)c1ccc(C#CC2CC2)cc1` [Compound I-349] had an inhibition at 2 µM greater than 75%.

Staying with this test, now noted: compound tested at 10 μM (concentration code D).
`Cc1cc(OCc2cnn(C)n2)cc(=O)n1[C@H](C)c1ccc(C#CC2CC2)cc1` [Compound I-358] registered an inhibition at 10 µM greater than 75%.
On to `Cc1cc(OCC(F)(F)F)ccc1-c1cncc(OC[C@H]2COCCO2)c1` [Compound I-32], for which the inhibition at 10 µM lay within 25 to 50%.
On the same count and under the same terms, the same measure for `Cc1cc(OCc2cnn(C)c2)cc(=O)n1[C@H](C)c1ccc(C#CC2CC2)cc1` [Compound I-352]: greater than 75%; for `CCCCCc1ccc([C@@H](C)n2c(C)cc(OCc3ncccn3)cc2=O)cc1` [Compound I-309]: less than 25%.
Same read-out and setting: the same measure for `COc1ccc([C@@H](C)n2c(C)cc(OCc3ncccn3)cc2=O)cc1` [Compound I-301]: less than 25%.
Same read-out and setting: the same measure for `Cc1cc(C#CC2CC2)ccc1C(C)n1ccc(OCc2ncccn2)cc1=O` (stereo not drawn) [Compound I-251]: less than 25%.
`Cc1nc(OCc2ccc(C#CC3CC3)cc2C)cc(OCC2COCCO2)n1` (stereo not drawn) [Compound I-23] displayed an inhibition at 10 µM of less than 25%.
Same read-out and setting: with `Cc1cc(OCc2ncco2)cc(=O)n1C(C)c1ccc(C#CC2CC2)c(F)c1` (stereo not drawn) [Compound I-365] the figure was greater than 75%; with `Cc1cc(OCc2ncccn2)cc(=O)n1[C@H](C)c1ccccc1` [Compound I-300], less than 25%.
The molecule `Cc1cc(OCc2ncccn2)cc(=O)n1[C@H](C)c1ccc(C#CC2CC2)nc1` [Compound I-288] returned an inhibition at 10 µM of 25 to 50%.
The same measure, in the same setting: the same measure for `Cc1cc(OCc2ncccn2)cc(=O)n1[C@H](C)c1ccc(C#CC2CCC2)cc1` [Compound I-314]: greater than 75%; for `Cc1ccc([C@@H](C)n2c(C)cc(OCc3ncccn3)cc2=O)cc1` [Compound I-299]: less than 25%; for `COc1cccnc1COc1cc(C)n([C@H](C)c2ccc(C#CC3CC3)cc2)c(=O)c1` [Compound I-318]: greater than 75%.
The same measure, in the same setting: the same measure for `Cc1cc(C#CC2CC2)ccc1C(C)n1ccc(OC[C@@H]2COCCO2)cc1=O` (stereo partly drawn) [Compound I-239]: less than 25%.
`Cc1cc(OC[C@H]2COCCO2)cc(=O)n1Cc1ccc(F)c(C#CC2CC2)c1` [Compound I-28] displayed an inhibition at 10 µM of less than 25%.
The same measure, in the same setting: the same measure for `CCC(c1ccc(C#CC2CC2)cc1)n1c(C)cc(OCC2COCCO2)cc1=O` (stereo not drawn) [Compound I-21]: 50 to 75%; for `CC1(C)CN(c2cccc(Cn3ccc(OCc4ncccn4)cc3=O)c2)C1` [Compound I-248]: 25 to 50%.
The same measure, in the same setting: the same measure for `Cc1cc(OCc2ncccn2)cc(=O)n1[C@H](C)c1ccc(C#Cc2ccccc2)cc1` [Compound I-329]: less than 25%; for `Cc1cc(OCc2ncccn2)cc(=O)n1[C@H](C)c1ccc(C#CCNC(=O)OC(C)C)cc1` [Compound I-269]: less than 25%; for `Cc1cc(OCc2c(F)ccc[n+]2[O-])cc(=O)n1[C@H](C)c1ccc(C#CC2CC2)cc1` [Compound I-369]: greater than 75%.
Still for that read-out and setting: the same measure for `Cc1cc(OCc2ncccn2)cc(=O)n1[C@H](C)c1ccc(-c2ccccc2)cc1` [Compound I-344]: less than 25%.
On to `Cc1cc(OCC2COCCO2)cc(=O)n1C(C)c1ccc(OCC(F)(F)F)cc1` (stereo not drawn) [Compound I-99], for which the inhibition at 10 µM is less than 25%.
The same measure, in the same setting: with `CC(c1ccc(C#CC2CC2)cn1)n1ccc(OC[C@@H]2COCCO2)cc1=O` (stereo partly drawn) [Compound I-240] the figure was 25 to 50%.

Staying with this test, now noted: compound tested at 12.5 μM (concentration code E).
Turning to `COc1cc(OCC2COCCO2)cc(-c2ccc(OCc3ccccn3)cc2)n1` (stereo not drawn) [Compound I-15], the inhibition at 12.5 µM was less than 25%.
Still for that read-out and setting: with `Cc1ccc(-c2ccc(-c3cc(OCC4CCCCO4)ncn3)cc2)cn1` (stereo not drawn) [Compound I-124] the figure was less than 25%.

Still in this test, the particulars now being: compound tested at 15 μM (concentration code F).
The molecule `O=C(CC1CCOCC1)N1CCc2cc(C#CC3CC3)ccc2C1` [Compound I-181] gave an inhibition at 15 µM of 25 to 50%.
The molecule `COc1cc(OCC2COCCO2)cc(-c2cccc(-c3ccc(C)nc3)c2)n1` (stereo not drawn) [Compound I-66] gave an inhibition at 15 µM of less than 25%.

The test is the same for the next values; noted with them: compound tested at 25 μM (concentration code G).
In the case of `Cc1ccc(-c2ccc(-c3nc(OCC4COCCO4)cc(=O)n3C)cc2)cn1` (stereo not drawn) [Compound I-47], the inhibition at 25 µM lay within 25 to 50%.
The same measure, in the same setting: with `O=c1nc(OCC2COCCO2)cc2n1CCOc1cc(Cl)ccc1-2` (stereo not drawn) [Compound I-206] the figure was 25 to 50%; with `Cc1ccc(-c2ccc(Cn3c(C)cc(OCC4COCCO4)cc3=O)cc2)cn1` (stereo not drawn) [Compound I-91], less than 25%; with `COc1cc(OCC2COCCO2)cc(-c2c(C)cc(OCc3ccccc3)cc2C)n1` (stereo not drawn) [Compound I-125], less than 25%.
On the same count and under the same terms, the same measure for `C(#CC1CC1)c1ccc(Cc2cccc(OCC3COCCO3)c2)cc1` (stereo not drawn) [Compound I-174]: less than 25%; for `Cc1ccc(-c2ccc3c(c2)CCN(C(=O)CC2CCCCO2)C3)cn1` (stereo not drawn) [Compound I-203]: 25 to 50%; for `COc1cc(OCC2COCCO2)cc(-c2ccc(-c3ccc(C)nc3)cc2)n1` (stereo not drawn) [Compound I-51]: 25 to 50%.
Same read-out and setting: with `Cc1ccc(-c2ccc(-c3nc(OCC4COCCO4)cc(=O)[nH]3)cc2)cn1` (stereo not drawn) [Compound I-139, 6-((1,4-dioxan-2-yl)methoxy)-2-(4-(6-methylpyridin-3-yl)phenyl)pyrimidin-4(3H)-one] the figure was less than 25%.
The molecule `COc1nc(OCC2COCCO2)cc(-c2ccc(OCC(F)(F)F)cc2)n1` (stereo not drawn) [Compound I-110] displayed an inhibition at 25 µM of less than 25%.
`COc1cc(OCC2COCCO2)cc(-c2ccc(OCC(F)(F)F)cc2)c1OC` (stereo not drawn) [Compound I-156] gave an inhibition at 25 µM of less than 25%.
`Cn1c(-c2ccc(OCC(F)(F)F)cc2)cc(OCC2COCCO2)nc1=O` (stereo not drawn) [Compound I-62]: the inhibition at 25 µM was less than 25%.
The same measure, in the same setting: with `O=c1cnn(CC2CCCCO2)c(-c2ccc(C#CC3CC3)cc2)c1` (stereo not drawn) [Compound I-16] the figure was less than 25%; with `COc1cc(NC(=O)C2CCCCO2)cc(-c2ccc(C#CC3CC3)cc2)n1` (stereo not drawn) [Compound I-75], less than 25%; with `Cc1ccc(-c2ccc3c(c2)CN(C(=O)CC2CCCCO2)C3)cn1` (stereo not drawn) [Compound I-197], less than 25%.
Still for that read-out and setting: with `Cc1ccc(-c2ccc3c(c2)OCCn2c-3cc(OCC3COCCO3)nc2=O)cn1` (stereo not drawn) [Compound I-211] the figure was 25 to 50%; with `O=c1ncc(-c2ccc(C#CC3CC3)cc2)cn1C[C@H]1CCCCO1` (stereo in doubt) [Compound I-80, 5-(4-(cyclopropylethynyl)phenyl)-1-((tetrahydro-2H-pyran-2-yl)methyl)pyrimidin-2(1H)-one], less than 25%.
Take `O=C(CC1COCCO1)N1Cc2ccc(C#CC3CC3)cc2C1` (stereo not drawn) [Compound I-177]: the inhibition at 25 µM was less than 25%.
The same measure, in the same setting: with `Cc1ccc(N2CCN(c3cc(OCC4COCCO4)nc(=O)n3C)CC2)cn1` (stereo not drawn) [Compound I-86] the figure was less than 25%; with `C(#CC1CC1)c1ccc(-c2nccc(OCC3CCCCO3)n2)cc1` (stereo not drawn) [Compound I-127], less than 25%.

The record behind these values is US20250340543A1, “GPR84 ANTAGONISTS AND USES THEREOF” (Liminal BioSciences Limited, priority 2021, published 2025).
